We go through 5 compounds from patent US7732481B2, “Prolinylarylacetamides” (Merck Patent Gesellschaft mit beschrankter Haftung, priority 2003, dated 2010).

In the first data set the target is FXa (Homo sapiens, UniProt P00742). In words: Inhibition of factor Xa (FXa-IC50). The class given is biochemical. An excerpt: The inhibition of factor Xa by the compounds according to the invention and the measurement of the anticoagulant and antithrombotic activity can be determined by conventional in-vitro or in-vivo methods. A suitable method is described, for example, by J. Hauptmann et al. in Thrombosis and Haemostasis 1990, 63, 220-223.
Sequence of FXa (P00742 235-488 limits assumed): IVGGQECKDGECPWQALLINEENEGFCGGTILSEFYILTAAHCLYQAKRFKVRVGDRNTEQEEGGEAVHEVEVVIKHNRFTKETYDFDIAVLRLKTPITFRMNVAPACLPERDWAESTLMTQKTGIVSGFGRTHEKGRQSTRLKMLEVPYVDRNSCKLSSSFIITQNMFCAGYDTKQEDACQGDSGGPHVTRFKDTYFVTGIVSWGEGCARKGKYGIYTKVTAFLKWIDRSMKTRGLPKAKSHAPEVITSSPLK
Sequence of FXa (P00742 41-179 limits assumed): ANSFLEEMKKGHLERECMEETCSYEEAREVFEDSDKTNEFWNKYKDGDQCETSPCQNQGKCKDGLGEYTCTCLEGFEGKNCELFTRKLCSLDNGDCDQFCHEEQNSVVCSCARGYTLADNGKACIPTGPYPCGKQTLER
The inhibition of factor Xa can be measured, for example by the method of T. Hara et al. in Thromb. Haemostas. 1994, 71, 314-319.
By IC50 is commonly meant the concentration that inhibits the measured activity by half. Read a low IC50 as greater potency in that assay. In turn, `CN(C(=O)CN1CCOCC1)c1ccc(NC(=O)[C@H]2C[C@@H](O)CN2C(=O)Nc2ccc(Cl)cc2)cc1` [Compound A1-1, 1-N-(4-chlorophenyl)-2-N-{4-[(2-(morpholin-4-yl)ethanoyl)methylamino]phenyl}-(2R,4R)-4-hydroxypyrrolidine-1,2-dicarboxamide] showed an IC50 of 54 nM. The same measure, in the same setting: under `CN(C(=O)CN1CCC(O)CC1)c1ccc(NC(=O)[C@H]2C[C@@H](O)CN2C(=O)Nc2ccc(Cl)cc2)cc1` [Compound A1-2, 1-N-(4-chlorophenyl)-2-N-{4-[(2-(4-hydroxypiperidin-1-yl)ethanoyl)-methylamino]phenyl}-(2R,4R)-4-hydroxypyrrolidine-1,2-dicarboxamide] stands 37 nM; under `CCNCC(=O)N(C)c1ccc(NC(=O)[C@H]2C[C@@H](O)CN2C(=O)Nc2ccc(Cl)cc2)cc1` [Compound A3, 1-N-(4-Chlorophenyl)-2-N-{4-[(2-ethylaminoethanoyl)methylamino]-phenyl}-(2R,4R)-4-hydroxypyrrolidine-1,2-dicarboxamide], 17 nM.

System in another data set: not given
Assay: not given
A word on the melting point: it is the temperature, or range, at which the solid turns liquid. On to `CN(C)CC(=O)N(C)c1ccc(NC(=O)[C@H]2C[C@@H](O)CN2C(=O)Nc2ccc(Cl)cc2)cc1` [Compound A1, 1-N-(4-Chlorophenyl)-2-N-{4-[(2-dimethylaminoethanoyl)methylamino]-phenyl}-(2R,4R)-4-hydroxypyrrolidine-1,2-dicarboxamide], for which the melting point came out at 95 °C.

For the compound `COCC(=O)N(C)c1ccc(NC(=O)[C@H]2C[C@@H](O)CN2C(=O)Nc2ccc(Cl)cc2)cc1` [Compound A4, 1-N-(4-Chlorophenyl)-2-N-{4-[(2-methoxyethanoyl)methylamino]phenyl}-(2R,4R)-4-hydroxypyrrolidine-1,2-dicarboxamide], the melting point stood at 84 °C. Take `CCNCC(=O)N(C)c1ccc(NC(=O)[C@H]2C[C@@H](O)CN2C(=O)Nc2ccc(Cl)cc2)cc1` [Compound A3, 1-N-(4-Chlorophenyl)-2-N-{4-[(2-ethylaminoethanoyl)methylamino]-phenyl}-(2R,4R)-4-hydroxypyrrolidine-1,2-dicarboxamide]: the melting point is 121 °C.
